Experimental data as given in patent publication US20240051958A1, “DIACYLGLYCEROL KINASE (DGK) ALPHA INHIBITORS AND USES THEREOF” (priority 2022, published 2024).

Assays:
DGKA = DGKA (Homo sapiens (Human), UniProt P23743); assay: DGKA Inhibition ADP-Glo Assay; type: biochemical; conditions: 40 μM ATP, 200 μM DLG in substrate working solution, 25° C., 60 min
Description: The DGKA inhibition reactions were performed using ADP-Glo assay. The reactions were carried out in 50 mM HEPES, 100 mM NaCl, 10 mM MgCl2, 1 mM CaCl2, 0.005% TritonX-100 and 1 mM DTT as working solution (pH=7.5). 30 nL DMSO solution of each test compound (Top concentration 0.4 μM with 10 point, 4-fold dilution series for each compound) were transferred to 384 well plate by Echo and 5 μL DGKA (SignalChem, D21-10BG) enzyme working solution at 2×final reaction concentration was added to each well. After incubated at 25° C. for 15 minutes, 5 μL substrate working solution contain 40 μM ATP (Promega, V915B) and 200 μM DLG (SignalChem, D430-59) were added to initiate reaction. After enzymatic reaction at 25° C. for 60 min, ADP Glo assay reagents (Promega, V9102) were added and luminescence was recorded using an EnVision following the instruction of manual. […] The IC50 value was calculated via a regression analysis of the inhibition rate.

Human Pan T cells = assay: IL-2 Release Detection Assay; type: cell-based; conditions: for Activation fold: Top activation/DMSO control; for Activation % at 100 nM: fitted curve at 100 nM/DMSO control*100%
Description: Add dilutions of compounds into the cells and incubate at 37° C. &5% CO2 for 24 hours. IL-2 in cell supernatant was detected by ELISA Kit (R&D, DY202). […] Top and Bottom: Plateaus in same units as Y. LogEC50: same log units as X. Activation fold: Top activation/DMSO control. Activation % at 100 nM: Activation of non-linear regression equation curve at the concentration of 100 nM/DMSO control*100%.

Sequence of DGKA (P23743 whole entry): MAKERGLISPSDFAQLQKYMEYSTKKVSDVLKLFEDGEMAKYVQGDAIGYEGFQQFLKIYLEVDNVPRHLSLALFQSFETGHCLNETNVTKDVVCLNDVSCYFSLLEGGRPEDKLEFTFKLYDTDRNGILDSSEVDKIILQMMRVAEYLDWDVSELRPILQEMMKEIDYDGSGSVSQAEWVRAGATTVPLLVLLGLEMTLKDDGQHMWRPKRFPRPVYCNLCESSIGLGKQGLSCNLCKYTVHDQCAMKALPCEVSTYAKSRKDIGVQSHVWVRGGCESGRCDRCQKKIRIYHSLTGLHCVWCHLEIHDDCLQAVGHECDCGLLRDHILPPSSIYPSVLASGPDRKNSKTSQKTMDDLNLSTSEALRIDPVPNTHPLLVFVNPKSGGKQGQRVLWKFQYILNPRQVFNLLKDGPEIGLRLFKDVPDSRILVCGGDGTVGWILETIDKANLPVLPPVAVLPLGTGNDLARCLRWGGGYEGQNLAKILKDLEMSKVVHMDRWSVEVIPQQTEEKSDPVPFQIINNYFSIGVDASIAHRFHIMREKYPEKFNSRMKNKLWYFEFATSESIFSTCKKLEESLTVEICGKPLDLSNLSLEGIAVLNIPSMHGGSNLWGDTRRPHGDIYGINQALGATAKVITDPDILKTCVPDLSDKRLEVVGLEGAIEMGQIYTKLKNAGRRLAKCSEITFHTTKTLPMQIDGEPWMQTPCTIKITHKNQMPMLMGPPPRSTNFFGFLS

SMILES | IC50 (DGKA) [pM] | Activation fold (Human Pan T cells) | Activation % at 100 nM (Human Pan T cells) [%]
Cc1ccc2oc(C3CCN(c4cc(=O)n(C)c5ccc(Cl)cc45)CC3)nc2c1 [Example 2, 6-chloro-1-methyl-4-(4-(5-methylbenzo[d]oxazol-2-yl)piperidin-1-yl)quinolin-2(1H)-one] | 470 | 5.3 | 234
Cc1ccc2oc(C3CCN(c4cc(=O)n(C)c5ccc(C#N)cc45)CC3)nc2c1 [Example 3, 1-methyl-4-(4-(5-methylbenzo[d]oxazol-2-yl)piperidin-1-yl)-2-oxo-1,2-dihydroquinoline-6-carbonitrile] | 2350 | 7.8 | 370
Cc1ccc2oc(C3CCN(c4nc(=O)n(C)c5ccc(Cl)cc45)CC3)nc2c1 [Example 4, 6-chloro-1-methyl-4-(4-(5-methylbenzo[d]oxazol-2-yl)piperidin-1-yl)quinazolin-2(1H)-one] | 4430 | 3.5 | 211
Cc1ccc2oc(C3CCN(c4nc(=O)n(C)c5ccc(C#N)cc45)CC3)nc2c1 [Example 5, 1-methyl-4-(4-(5-methylbenzo[d]oxazol-2-yl)piperidin-1-yl)-2-oxo-1,2-dihydroquinazoline-6-carbonitrile] | 103000 | – | –
Cc1ccc2oc(C3CCN(c4cc(=O)n(C)c5ccc(F)cc45)CC3)nc2c1 [Example 6, 6-fluoro-1-methyl-4-(4-(5-methylbenzo[d]oxazol-2-yl)piperidin-1-yl)quinolin-2(1H)-one] | 1230 | – | –
Cc1ccc2oc(C3CCN(c4nc(=O)n(C)c5ccc(F)cc45)CC3)nc2c1 [Example 7, 6-fluoro-1-methyl-4-(4-(5-methylbenzo[d]oxazol-2-yl)piperidin-1-yl)quinazolin-2(1H)-one] | 16000 | – | –
Cc1ccc2oc(N3[C@@H]4CC[C@H]3CN(c3c(C#N)c(=O)n(C)c5ccc(F)cc35)C4)nc2c1 [Example 8, 6-fluoro-1-methyl-4-((1R,5S)-8-(5-methylbenzo[d]oxazol-2-yl)-3,8-diazabicyclo[3.2.1]octan-3-yl)-2-oxo-1,2-dihydroquinoline-3-carbonitrile] | 7740 | – | –
Cc1ccc2oc(C3CCN(c4c(C#N)c(=O)n(C)c5ccc(Cl)nc45)CC3)nc2c1 [Example 9, 6-chloro-1-methyl-4-(4-(5-methylbenzo[d]oxazol-2-yl)piperidin-1-yl)-2-oxo-1,2-dihydro-1,5-naphthyridine-3-carbonitrile] | 2040 | 7.7 | 206
Cc1ccc2oc(C3CCN(c4cc(=O)n(C)c5ccc(Cl)nc45)CC3)nc2c1 [Example 10, 6-chloro-1-methyl-4-(4-(5-methylbenzo[d]oxazol-2-yl)piperidin-1-yl)-1,5-naphthyridin-2(1H)-one] | 360 | 7.3 | 143
Cn1c(=O)cc(N2CCC(c3nc4cc(F)ccc4o3)CC2)c2nc(Cl)ccc21 [Example 11, 6-chloro-4-(4-(5-fluorobenzo[d]oxazol-2-yl)piperidin-1-yl)-1-methyl-1,5-naphthyridin-2(1H)-one] | 660 | 6.1 | 169
Cc1ccc2oc(C3CCN(c4nc(=O)n(C)c5ccc(Cl)nc45)CC3)nc2c1 [Example 13, 6-chloro-1-methyl-4-(4-(5-methylbenzo[d]oxazol-2-yl)piperidin-1-yl)pyrido[3,2-d]pyrimidin-2(1H)-one] | 4110 | – | –
Cc1ccc2oc(C3CCN(c4nc(=O)n(C)c5ccc(C#N)nc45)CC3)nc2c1 [Example 14, 1-methyl-4-(4-(5-methylbenzo[d]oxazol-2-yl)piperidin-1-yl)-2-oxo-1,2-dihydropyrido[3,2-d]pyrimidine-6-carbonitrile] | 143000 | – | –
COCCOc1cc2c(nc1Cl)c(N1CCC(c3nc4cc(C)ccc4o3)CC1)cc(=O)n2C [Example 15, 6-chloro-7-(2-methoxyethoxy)-1-methyl-4-(4-(5-methylbenzo[d]oxazol-2-yl)piperidin-1-yl)-1,5-naphthyridin-2(1H)-one] | 190 | 6.5 | 214
COCCOc1cc2c(nc1C#N)c(N1CCC(c3nc4cc(C)ccc4o3)CC1)cc(=O)n2C [Example 16, 3-(2-methoxyethoxy)-5-methyl-8-(4-(5-methylbenzo[d]oxazol-2-yl)piperidin-1-yl)-6-oxo-5,6-dihydro-1,5-naphthyridine-2-carbonitrile] | 350 | 6.29 | 253
Cc1ccc2oc(C3CCN(c4cc(=O)n(C)c5cc(NCCO)c(Cl)nc45)CC3)nc2c1 [Example 17, 6-chloro-7-((2-hydroxyethyl)amino)-1-methyl-4-(4-(5-methylbenzo[d]oxazol-2-yl)piperidin-1-yl)-1,5-naphthyridin-2(1H)-one] | 120 | 8.2 | 159
Cc1ccc2oc(C3CCN(c4cc(=O)n(C)c5cc(NCCO)c(C#N)nc45)CC3)nc2c1 [Example 18, 3-((2-hydroxyethyl)amino)-5-methyl-8-(4-(5-methylbenzo[d]oxazol-2-yl)piperidin-1-yl)-6-oxo-5,6-dihydro-1,5-naphthyridine-2-carbonitrile] | 100 | 6.9 | 355
Cc1ccc2oc(C3CCN(c4cc(=O)n(C)c5cc(NCCO)cnc45)CC3)nc2c1 [Example 19, 7-((2-hydroxyethyl)amino)-1-methyl-4-(4-(5-methylbenzo[d]oxazol-2-yl)piperidin-1-yl)-1,5-naphthyridin-2(1H)-one] | 2360 | – | –
Cc1ccc2oc(C3CCN(c4cc(=O)n(C)c5cc(OC6CCOC6)c(Cl)nc45)CC3)nc2c1 (stereo not drawn) [Example 20, 6-chloro-1-methyl-4-(4-(5-methylbenzo[d]oxazol-2-yl)piperidin-1-yl)-7-((tetrahydrofuran-3-yl)oxy)-1,5-naphthyridin-2(1H)-one] | 130 | – | –
Cc1ccc2oc(C3CCN(c4cc(=O)n(C)c5cc(OC6CCOC6)c(C#N)nc45)CC3)nc2c1 (stereo not drawn) [Example 21, 5-methyl-8-(4-(5-methylbenzo[d]oxazol-2-yl)piperidin-1-yl)-6-oxo-3-((tetrahydrofuran-3-yl)oxy)-5,6-dihydro-1,5-naphthyridine-2-carbonitrile] | 230 | 10.1 | 520
Cc1ccc2oc(C3CCN(c4cc(=O)n(C)c5cc(OCCO)c(Cl)nc45)CC3)nc2c1 [Example 22, 6-chloro-7-(2-hydroxyethoxy)-1-methyl-4-(4-(5-methylbenzo[d]oxazol-2-yl)piperidin-1-yl)-1,5-naphthyridin-2(1H)-one] | 150 | – | –
Cc1ccc2oc(C3CCN(c4cc(=O)n(C)c5cc(OCCCO)c(C#N)nc45)CC3)nc2c1 [Example 24, 3-(3-hydroxypropoxy)-5-methyl-8-(4-(5-methylbenzo[d]oxazol-2-yl)piperidin-1-yl)-6-oxo-5,6-dihydro-1,5-naphthyridine-2-carbonitrile] | 310 | 25.6 | 679
Cc1ccc2oc(C3CCN(c4cc(=O)n(C)c5cc(OC6CCOCC6)c(C#N)nc45)CC3)nc2c1 [Example 25, 5-methyl-8-(4-(5-methylbenzo[d]oxazol-2-yl)piperidin-1-yl)-6-oxo-3-((tetrahydro-2H-pyran-4-yl)oxy)-5,6-dihydro-1,5-naphthyridine-2-carbonitrile] | 5290 | – | –
Cc1ccc2oc(C3CCN(c4cc(=O)n(C)c5cc(OCCN)c(C#N)nc45)CC3)nc2c1 [Example 26, 3-(2-aminoethoxy)-5-methyl-8-(4-(5-methylbenzo[d]oxazol-2-yl)piperidin-1-yl)-6-oxo-5,6-dihydro-1,5-naphthyridine-2-carbonitrile] | 3340 | – | –
Cc1ccc2oc(C3CCN(c4cc(=O)n(C)c5cc(OC6CCNC6)c(C#N)nc45)CC3)nc2c1 (stereo not drawn) [Example 27, 5-methyl-8-(4-(5-methylbenzo[d]oxazol-2-yl)piperidin-1-yl)-6-oxo-3-(pyrrolidin-3-yloxy)-5,6-dihydro-1,5-naphthyridine-2-carbonitrile] | 13600 | – | –
Cc1ccc2oc(C3CCN(c4cc(=O)n(C)c5cc(O[C@H]6CCOC6)c(C#N)nc45)CC3)nc2c1 [Example 29, (S)-5-methyl-8-(4-(5-methylbenzo[d]oxazol-2-yl)piperidin-1-yl)-6-oxo-3-((tetrahydrofuran-3-yl)oxy)-5,6-dihydro-1,5-naphthyridine-2-carbonitrile] | 700 | 8.5 | 292
Cc1ccc2oc(N3CC=C(c4cc(=O)n(C)c5cc(OCCO)c(C#N)nc45)CC3)nc2c1 [Example 30, 3-(2-hydroxyethoxy)-5-methyl-8-(1-(5-methylbenzo[d]oxazol-2-yl)-1,2,3,6-tetrahydropyridin-4-yl)-6-oxo-5,6-dihydro-1,5-naphthyridine-2-carbonitrile] | 650 | 11.0 | 244
